In PubChem BioAssay AID248 (DTP/NCI, 2004):
Values joined by “and” are separate entries in the source; they are usually repeats but may differ in a detail not shown here. Equal values may be shown once. Inconclusive results and toxic doses are left out. Cut-off read from the data, not from the text of the source: active = T/C of 150% or more; inactive = T/C below 125%.

System: L1210 leukemia ip in BDF1 mice, survival T/C
Assay: NCI In Vivo Anticancer Drug Screen. Data for tumor model L1210 Leukemia (intraperitoneal) in B6D2F1 (BDF1) mice
Conditions: endpoint: mean survival time, higher = longer survival
In short: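 Mice bearing the transplanted tumor received compound or vehicle. Survival of the treated group was divided by that of the vehicle-treated control group to give the ratio.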

[1] = dose: 100.0 mg/kg/injection, schedule: Q01DX009 (ip), vehicle: saline with Tween-80
[2] = dose: 100.0 mg/kg/injection, schedule: Q04DX003 (ip), vehicle: Klucel (hydroxypropylcellulose) (HPC)
[3] = dose: 200.0 mg/kg/injection, schedule: Q01DX009 (ip), vehicle: saline with Tween-80
[4] = dose: 200.0 mg/kg/injection, schedule: Q04DX003 (ip), vehicle: Klucel (hydroxypropylcellulose) (HPC)
[5] = dose: 400.0 mg/kg/injection, schedule: Q01DX009 (ip), vehicle: saline with Tween-80
[6] = dose: 400.0 mg/kg/injection, schedule: Q04DX003 (ip), vehicle: Klucel (hydroxypropylcellulose) (HPC)
[7] = dose: 100.0 mg/kg/injection, schedule: Q01DX009 (ip), vehicle: Klucel (hydroxypropylcellulose) (HPC)
[8] = dose: 50.0 mg/kg/injection, schedule: Q04DX003 (ip), vehicle: Klucel (hydroxypropylcellulose) (HPC)
[9] = dose: 100.0 mg/kg/injection, schedule: Q01DX001 (ip), vehicle: saline
[10] = dose: 200.0 mg/kg/injection, schedule: Q01DX001 (ip), vehicle: saline
[11] = dose: 400.0 mg/kg/injection, schedule: Q01DX001 (ip), vehicle: saline
[12] = dose: 100.0 mg/kg/injection, schedule: Q04DX003 (ip), vehicle: saline
[13] = dose: 200.0 mg/kg/injection, schedule: Q04DX003 (ip), vehicle: saline
[14] = dose: 400.0 mg/kg/injection, schedule: Q04DX003 (ip), vehicle: saline
[15] = dose: 200.0 mg/kg/injection, schedule: Q01DX009 (ip), vehicle: Klucel (hydroxypropylcellulose) (HPC)
[16] = dose: 400.0 mg/kg/injection, schedule: Q01DX009 (ip), vehicle: Klucel (hydroxypropylcellulose) (HPC)
[17] = dose: 100.0 mg/kg/injection, schedule: Q04DX003 (ip), vehicle: saline with Tween-80
[18] = dose: 200.0 mg/kg/injection, schedule: Q04DX003 (ip), vehicle: saline with Tween-80
[19] = dose: 400.0 mg/kg/injection, schedule: Q04DX003 (ip), vehicle: saline with Tween-80

Measured: T/C

CC(C)CCCC(C)C1CCC2C3C(=O)C=C4CC(O)CCC4(C)C3CCC12C (centres undefined)
inactive: dose: 100.0 mg/kg/injection, schedule: Q01DX009 (sc), vehicle: steriod suspending solution 106 % of control | dose: 100.0 mg/kg/injection, schedule: Q04DX003 (sc), vehicle: steriod suspending solution 100 % of control | dose: 200.0 mg/kg/injection, schedule: Q01DX009 (sc), vehicle: steriod suspending solution 96 % of control | dose: 200.0 mg/kg/injection, schedule: Q04DX003 (sc), vehicle: steriod suspending solution 115 % of control | dose: 400.0 mg/kg/injection, schedule: Q01DX009 (sc), vehicle: steriod suspending solution 98 % of control | dose: 400.0 mg/kg/injection, schedule: Q04DX003 (sc), vehicle: steriod suspending solution 107 % of control

CN(C)C(=O)Sc1ccc2c(c1)CCC1C2CCC2(C)C(=O)CCC12 (centres undefined)
inactive: dose: 100.0 mg/kg/injection, schedule: Q01DX001 (ip), vehicle: gum acacia 101 % of control | dose: 200.0 mg/kg/injection, schedule: Q01DX001 (ip), vehicle: gum acacia 101 % of control | dose: 400.0 mg/kg/injection, schedule: Q01DX001 (ip), vehicle: gum acacia 97 % of control

Cc1ccc(S(=O)(=O)Oc2cc(C)ccc2C)cc1
inactive: [1] 100 % of control | [2] 97 % of control | [3] 93 % of control | [4] 92 % of control | [5] 101 % of control | [6] 91 % of control

ClC(Cl)(Cl)c1ccc(C(Cl)(Cl)Cl)cc1
inactive: dose: 12.5 mg/kg/injection, schedule: Q01DX009 (ip), vehicle: Klucel (hydroxypropylcellulose) (HPC) 96 % of control | dose: 25.0 mg/kg/injection, schedule: Q01DX009 (ip), vehicle: Klucel (hydroxypropylcellulose) (HPC) 104 % of control | dose: 50.0 mg/kg/injection, schedule: Q01DX009 (ip), vehicle: Klucel (hydroxypropylcellulose) (HPC) 94 % of control and 97 % of control | [7] 94 % of control | [2] 105 % of control | [4] 91 % of control

Nc1ncnc2nc(N=Nc3ccc(S(=O)(=O)N(CCCl)CCCl)cc3)[nH]c12
inactive: [8] 93 % of control | [2] 88 % of control and 91 % of control | [4] 96 % of control

Cc1cc(P(=O)(O)O)ccc1Cl
inactive: dose: 100.0 mg/kg/injection, schedule: Q01DX009 (ip), vehicle: acetone 87 % of control | dose: 200.0 mg/kg/injection, schedule: Q01DX009 (ip), vehicle: acetone 90 % of control

C[N+](C)(C)CCC[N+]1(C)CC2CC=CCC2C1 (centres undefined)
inactive: dose: 100.0 mg/kg/injection, schedule: Q01DX Z (ip), vehicle: saline 97 % of control | dose: 145.0 mg/kg/injection, schedule: Q01DX Z (ip), vehicle: saline 97 % of control | dose: 220.0 mg/kg/injection, schedule: Q01DX Z (ip), vehicle: saline 87 % of control

Cc1cc(=O)n(CC(=O)O)c2ccccc12
inactive: [8] 88 % of control | [9] 100 % of control | [2] 90 % of control | [10] 100 % of control | [11] 98 % of control

NC1CCC(O)CC1 (centres undefined)
inactive: [9] 110 % of control | [10] 97 % of control | [11] 97 % of control

CCCCCCC(=O)N1CC(C)OC(C)C1 (centres undefined)
inactive: dose: 100.0 mg/kg/injection, schedule: Q04DX002 (ip), vehicle: Klucel (hydroxypropylcellulose) (HPC) 96 % of control | dose: 200.0 mg/kg/injection, schedule: Q04DX002 (ip), vehicle: Klucel (hydroxypropylcellulose) (HPC) 96 % of control

c1ccc(P2CCc3[nH]c4ccccc4c3C2)cc1 (centres undefined)
inactive: [1] 97 % of control | [12] 100 % of control | [3] 110 % of control | [13] 96 % of control | [5] 100 % of control | [14] 113 % of control

Cc1ccc(C)c(NC(=O)N2CCCCC2C)c1 (centres undefined)
inactive: [7] 101 % of control | [2] 98 % of control | [15] 101 % of control | [4] 102 % of control | [16] 97 % of control | [6] 100 % of control

COc1ccn(C2CCCO2)c(=O)n1 (centres undefined)
inactive: dose: 50.0 mg/kg/injection, schedule: Q01DX001 (ip), vehicle: saline 101 % of control | [9] 101 % of control | [10] 104 % of control | [11] 104 % of control

O=C(CCN1CCOCC1)c1ccccc1
inactive: dose: 75.0 mg/kg/injection, schedule: Q01DX001 (ip), vehicle: saline 94 % of control | dose: 150.0 mg/kg/injection, schedule: Q01DX001 (ip), vehicle: saline 89 % of control | dose: 300.0 mg/kg/injection, schedule: Q01DX001 (ip), vehicle: saline 92 % of control

O=[N+]([O-])c1ccc(N/N=C\C2CC=C3c4ccccc4CCC3C2/C=N\Nc2ccc([N+](=O)[O-])cc2[N+](=O)[O-])c([N+](=O)[O-])c1 (centres undefined)
inactive: dose: 50.0 mg/kg/injection, schedule: Q01DX001 (ip), vehicle: carboxymethylcellulose (CMC) 89 % of control | dose: 100.0 mg/kg/injection, schedule: Q01DX001 (ip), vehicle: carboxymethylcellulose (CMC) 93 % of control | dose: 200.0 mg/kg/injection, schedule: Q01DX001 (ip), vehicle: carboxymethylcellulose (CMC) 103 % of control | dose: 400.0 mg/kg/injection, schedule: Q01DX001 (ip), vehicle: carboxymethylcellulose (CMC) 108 % of control

COc1c(NC(=O)c2ccc(Cl)c(Cl)c2)cccc1[N+](=O)[O-]
inactive: [1] 89 % of control | [3] 89 % of control | [5] 89 % of control

COC(=O)C1=CCCCC(N2CCOCC2)=C1C(=O)OC
inactive: [9] 97 % of control | [10] 101 % of control | [11] 103 % of control

O=C(O)CSC(CC(=O)O)C(=O)O (centres undefined)
inactive: dose: 100.0 mg/kg/injection, schedule: Q01DX009 (ip), vehicle: saline 107 % of control | dose: 200.0 mg/kg/injection, schedule: Q01DX009 (ip), vehicle: saline 108 % of control | dose: 400.0 mg/kg/injection, schedule: Q01DX009 (ip), vehicle: saline 103 % of control

CC/C(=N/O)c1ccc(O)cc1O
inactive: [1] 106 % of control | [17] 101 % of control | [3] 106 % of control | [18] 101 % of control | [19] 101 % of control

COc1ccc(Cl)cc1/C=C\C=N\NC(=O)C[N+](C)(C)C
inactive: dose: 15.0 mg/kg/injection, schedule: Q01DX001 (ip), vehicle: carboxymethylcellulose (CMC) 95 % of control | dose: 30.0 mg/kg/injection, schedule: Q01DX001 (ip), vehicle: carboxymethylcellulose (CMC) 93 % of control

C/C(=N\O)c1ccc(OCC(O)CN2CCN(c3ccccc3)CC2)cc1 (centres undefined)
inactive: dose: 37.5 mg/kg/injection, schedule: Q04DX003 (ip), vehicle: saline with Tween-80 101 % of control | dose: 50.0 mg/kg/injection, schedule: Q01DX009 (ip), vehicle: saline with Tween-80 103 % of control | dose: 75.0 mg/kg/injection, schedule: Q04DX003 (ip), vehicle: saline with Tween-80 93 % of control | [1] 108 % of control | dose: 150.0 mg/kg/injection, schedule: Q04DX003 (ip), vehicle: saline with Tween-80 101 % of control | [3] 115 % of control

CC(OC1CCCCO1)C1CCC2C3CCC4=CC(=O)CCC4(C)C3CCC12C (centres undefined)
inactive: dose: 50.0 mg/kg/injection, schedule: Q01DX001 (sc), vehicle: steriod suspending solution 103 % of control | dose: 100.0 mg/kg/injection, schedule: Q01DX001 (sc), vehicle: steriod suspending solution 105 % of control | dose: 200.0 mg/kg/injection, schedule: Q01DX001 (sc), vehicle: steriod suspending solution 103 % of control | dose: 400.0 mg/kg/injection, schedule: Q01DX001 (sc), vehicle: steriod suspending solution 111 % of control

Cn1nc(NC(=O)C(F)(F)F)c2nccnc21
inactive: [1] 95 % of control | [17] 100 % of control | [3] 94 % of control | [18] 101 % of control | [19] 108 % of control

CCOC(=O)c1cc(Cl)c(N)c(Cl)c1
inactive: [7] 93 % of control | [15] 90 % of control | [16] 100 % of control

ClCC1CC2c3ccccc3C1c1ccccc12 (centres undefined)
inactive: [12] 94 % of control | [13] 87 % of control | [14] 90 % of control
